pIC50: −log10 of the molar value.
Experiments:
Gag-Pol polyprotein [1] = target: T1, Gag-Pol polyprotein (Human immunodeficiency virus type 1 group M subtype B (isolate HXB2), UniProt P04585); test: 3'-P Inhibitory Assay
Description: Cleavage of a dinucleotide from each 3'-end of viral cDNA. All biological assays were performed essentially as previously described [Dayam et al., J. Med. Chem., 51:1136-1144].

Gag-Pol polyprotein [2] = target: T1, Gag-Pol polyprotein; test: ST Inhibitory Assay
Description: Insertion of two newly processed 3'-viral DNA ends into the host-cell chromosome. All biological assays were performed essentially as previously described [Dayam et al., J. Med. Chem., 51:1136-1144].

CC(=O)Oc1cc(C(=O)Nc2ccc(S(=O)(=O)Nc3ccccc3)cc2)cc(OC(C)=O)c1OC(C)=O [N-(4-Phenylsulfamoylphenyl)-3,4,5-triacetoxybenzamide (8m)]
pIC50 (Gag-Pol polyprotein [1]): 5.10 | pIC50 (Gag-Pol polyprotein [2]): 5.80

O=C(Nc1ccc(S(=O)(=O)Nc2ccccc2)cc1)c1cc(O)c(O)c(O)c1 [N-(4-Phenylsulfamoylphenyl)galloylamide (9m)]
pIC50 (Gag-Pol polyprotein [1]): 5.15 | pIC50 (Gag-Pol polyprotein [2]): 5.82

O=C(Nc1ccc(S(=O)(=O)Nc2ccccc2)cc1)c1ccc(O)c(O)c1 [N-(4-phenylsulfamoylphenyl)3,4-dihydroxybenzamidebenzamide (11w)]
pIC50 (Gag-Pol polyprotein [1]): 4.00 | pIC50 (Gag-Pol polyprotein [2]): 4.30

Reference: BindingDB's records for doi:10.3109/14756366.2011.604851 (Shandong University, 2012)
